The values below are quoted from earlier work in patent US20240057588A1, “HERBICIDAL FORMULATION IN THE FORM OF MICROEMULSION” (RED SURCOS COLOMBIA LTDA, priority 2018, published 2024).

For data set [1] the following is noted: qualitative.

As for `O=C1CCCCC1` [Cyclohexanone], the Solubility in water result is given as “slightly soluble”. In addition, in data set [1], the “Solubility in organic solvents / other media” value is “soluble in most organic solvents”. On to `CN1CCCC1=O` [N-Methylpyrrolidone], for which the Solubility in water entry is listed as “miscible”. In addition, the “Solubility in organic solvents / other media” value in data set [1] is “Miscible”. Regarding `O=C(O)CNCP(=O)(O)O` [glyphosate, reference compound], the Solubility in water result is given as “very low”.
